A value given as a limit tells only on which side of the number the result lay.

A short description of data set [1]: Assay 3.2: PK profile, oral bioavailability and renal excretion in human (SAD, 14C i.v. microtracer). Type of data set: in vivo. The procedure:
A Phase 1 single-ascending dose (SAD) clinical trial of Compound I′ (Form I), which converts to or dissolves to provide its soluble form Compound I in the body, was conducted in order to assess neprilysin inhibition for the treatment of a range of cardiovascular and renal diseases, including, e.g., chronic kidney disease, diabetic nephropathy, acute and chronic heart failure, heart failure with reduced ejection fraction, heart failure with preserved ejection fraction, post-myocardial infarction asymptomatic left ventricular dysfunction (post-MI asymptomatic LVD), subacute heart failure and resistant and isolated systolic hypertension. Safety and tolerability, pharmacokinetic (support for QD/BID dosing and non-renal excretion), pharmacodynamic (test for target engagement biomarkers cGMP and ANP), food effect, and absolute oral bioavailability and renal elimination using a ^14C intravenous microtracer, inter alia, were tested.
The Phase 1 study was a double-blind, randomized placebo-controlled single ascending dose study in healthy male and female volunteers randomized in a 4:1 ratio. The study enrolled 56 healthy volunteers over multiple weeks for the ascending-dose portion, which included cohorts (n=10/cohort of 8 active and 2 placebo) administered single ascending doses of 50 mg, 100 mg, 200 mg, 400 mg and 600 mg. A sixth cohort (n=6) was administered i.v. microtracer and oral doses of 10 μg and 100 mg, respectively.

Data set [2] in a line: Assay 4: Phase 1 multiple-ascending dose study, safety and tolerability. It is filed as in vivo, human. The settings on record: healthy adult and elderly subjects, multiple oral doses up to 14 days. The procedure:
A Phase 1 multiple-ascending dose (MAD) clinical trial of Compound I′ (Form I) was conducted in order to further evaluate the safety, tolerability, pharmacokinetics of Compound I and its metabolite, pharmacodynamics of Compound I, food effect, absolute oral bioavailability and renal elimination of multiple ascending oral doses of Compound I′ in healthy adult and elderly subjects. As discussed below, the reported data confirms the results stemming from the SAD clinical trial.
The Phase 1 study was a double-blind, randomized placebo-controlled multiple ascending dose study in healthy male and female volunteers randomized in a 4:1 ratio. The study enrolled 50 healthy adult (19-55 years old) and elderly (65-80 years old) volunteers over multiple weeks for the ascending-dose portion, which included cohorts (n=10/cohort of 8 active and 2 placebo) administered (1) ascending doses of 50 mg, 100 mg, and 200 mg, (2) a dose of 10 mg studied in parallel with 200 mg for PK/PK, and (3) a dose of 100 mg for one elderly cohort. […] Additionally, renal elimination of Compound I was neglible after multiple dosing, e.g., <1% was observed on Day 1 and Day 14 for all subjects.

The bioavailability is the share of a dose that reaches the circulation, judged against a reference dose that is usually intravenous. A higher bioavailability goes with much systemic uptake. `CCOC[C@](C)(C[C@@H](Cc1ccc(-c2cc(Cl)ccc2F)cc1)NC(=O)c1cc(O)no1)C(=O)O` [Compound I, (2S,4R)-5-(5′-Chloro-2′-fluoro-[1,1′-biphenyl]-4-yl)-2-(ethoxymethyl)-4-(3-hydroxyisoxazole-5-carboxamido)-2-methylpentanoic Acid] gave a bioavailability in data set [1] (both sexes, in vivo, po, 100 mg, human, SAD clinical trial) of roughly 80%. For the same molecule, the pharmacokinetic profile entry in data set [1] (healthy subjects, single doses 50-600 mg) is on record as “dose-proportional”. Further, the “renal elimination (of total administered dose)” value in data set [1] (human, SAD clinical trial, confirmed by intravenous microtracer) is on record as less than 1%. Moreover, the tolerability result in data set [2] is listed as “generally well-tolerated”.

The values above are taken from US12351561B2, “Crystalline (2S,4R)-5-(5'-chloro-2'-fluoro-[1,1'-biphenyl]-4-yl)-2-(ethoxymethyl)-4-(3-hydroxyisoxazole-5-carboxamido)-2-methylpentanoic acid and uses thereof” (THERAVANCE BIOPHARMA R&D IP, LLC, priority 2016, dated 2025).
